SMILES strings stand for the structures.

Ki data for 13 compounds are collected here from ChEMBL document CHEMBL1133189, “Novel conformationally constrained tropane analogues by 6-endo-trig radical cyclization and stille coupling - switch of activity toward the serotonin and/or norepinephrine transporter” (J Med Chem, 2000).

The target in assay [1] is T1, Sodium-dependent noradrenaline transporter (Homo sapiens, UniProt P23975). As to the kind of experiment: Compound was evaluated for binding affinity using [125I]RTI-55 as a radioligand in HEK-hNET cells expressing human norepinephrine transporter. The assay is classed as cell-based.
In assay [2] the target is T2, Sodium-dependent dopamine transporter (Homo sapiens, UniProt Q01959). As to the kind of experiment: Compound was evaluated for inhibition of [3H]DA uptake in HEK-hDAT cells expressing Human dopamine Transporter. It is filed as cell-based.
In assay [3] the target is Sodium-dependent dopamine transporter (Rattus norvegicus, UniProt P23977). As to the kind of experiment: Inhibition of reuptake of [3H]DA at Dopamine transporter (DAT).
Assay [4] concerns the target T3, Sodium-dependent serotonin transporter (Homo sapiens, UniProt P31645). Nature of the assay: Compound was evaluated for inhibition of [3H]5-HT uptake in HEK-hSERT cells expressing Human serotonin transporter. The assay is classed as cell-based.
The target in assay [5] is T3, Sodium-dependent serotonin transporter. As to the kind of experiment: Compound was evaluated for binding affinity using [125I]RTI-55 as a radioligand in HEK-hSERT cells expressing human serotonin transporter. The assay is classed as cell-based.
The target of assay [6] is Sodium-dependent serotonin transporter (Rattus norvegicus, UniProt P31652). As to the kind of experiment: Inhibition of reuptake of [3H]5-HT at serotonin transporter.
The target in assay [7] is T1, Sodium-dependent noradrenaline transporter. As to the kind of experiment: Compound was evaluated for inhibition of [3H]NE uptake in HEK-hNET cells expressing Human norepinephrine transporter. The assay is classed as cell-based.
Assay [8] addresses T2, Sodium-dependent dopamine transporter. As to the kind of experiment: Compound was evaluated for binding affinity to dopamine transporter using [125I]RTI-55 as a radioligand in HEK cells expressing human transporters. It is filed as cell-based, HEK293.
For assay [9], the target named is Norepinephrine transporter (Rattus norvegicus, UniProt Q9WTR4). Nature of the assay: Inhibition of reuptake of [3H]-NE at Norepinephrine transporter.
Chain of Norepinephrine transporter (Q9WTR4 whole entry): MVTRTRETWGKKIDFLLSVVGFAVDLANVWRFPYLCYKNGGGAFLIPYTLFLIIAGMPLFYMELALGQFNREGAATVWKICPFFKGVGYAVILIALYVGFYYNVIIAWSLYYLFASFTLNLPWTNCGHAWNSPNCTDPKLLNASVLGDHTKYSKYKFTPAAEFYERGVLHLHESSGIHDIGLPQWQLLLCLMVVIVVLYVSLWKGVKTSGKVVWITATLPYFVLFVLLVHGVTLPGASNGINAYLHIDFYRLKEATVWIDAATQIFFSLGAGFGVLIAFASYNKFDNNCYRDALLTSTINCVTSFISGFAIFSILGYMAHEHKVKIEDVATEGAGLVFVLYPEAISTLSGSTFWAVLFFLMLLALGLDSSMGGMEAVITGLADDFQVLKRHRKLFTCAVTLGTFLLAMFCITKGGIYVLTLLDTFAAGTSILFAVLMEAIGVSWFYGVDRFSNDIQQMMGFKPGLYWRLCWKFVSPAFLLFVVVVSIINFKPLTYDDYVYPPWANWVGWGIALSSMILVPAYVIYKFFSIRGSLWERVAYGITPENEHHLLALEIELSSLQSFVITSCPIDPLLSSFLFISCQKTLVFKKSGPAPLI

T3 sequence (P31645 whole entry): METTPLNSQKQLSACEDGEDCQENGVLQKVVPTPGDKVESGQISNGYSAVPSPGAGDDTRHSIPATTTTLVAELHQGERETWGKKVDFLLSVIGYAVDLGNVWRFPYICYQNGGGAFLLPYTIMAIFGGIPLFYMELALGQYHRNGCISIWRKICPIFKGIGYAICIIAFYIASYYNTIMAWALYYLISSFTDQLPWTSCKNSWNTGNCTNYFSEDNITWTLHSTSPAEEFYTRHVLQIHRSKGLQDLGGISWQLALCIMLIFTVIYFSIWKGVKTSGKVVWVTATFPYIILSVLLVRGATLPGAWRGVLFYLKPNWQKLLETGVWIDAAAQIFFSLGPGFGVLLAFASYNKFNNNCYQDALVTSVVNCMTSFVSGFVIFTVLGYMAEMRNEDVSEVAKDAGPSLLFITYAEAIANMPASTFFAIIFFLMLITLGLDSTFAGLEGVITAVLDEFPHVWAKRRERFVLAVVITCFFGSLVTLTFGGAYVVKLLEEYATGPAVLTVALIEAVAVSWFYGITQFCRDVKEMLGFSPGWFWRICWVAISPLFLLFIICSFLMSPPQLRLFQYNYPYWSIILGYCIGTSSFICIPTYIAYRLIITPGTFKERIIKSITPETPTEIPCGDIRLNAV
T2 sequence (Q01959 whole entry): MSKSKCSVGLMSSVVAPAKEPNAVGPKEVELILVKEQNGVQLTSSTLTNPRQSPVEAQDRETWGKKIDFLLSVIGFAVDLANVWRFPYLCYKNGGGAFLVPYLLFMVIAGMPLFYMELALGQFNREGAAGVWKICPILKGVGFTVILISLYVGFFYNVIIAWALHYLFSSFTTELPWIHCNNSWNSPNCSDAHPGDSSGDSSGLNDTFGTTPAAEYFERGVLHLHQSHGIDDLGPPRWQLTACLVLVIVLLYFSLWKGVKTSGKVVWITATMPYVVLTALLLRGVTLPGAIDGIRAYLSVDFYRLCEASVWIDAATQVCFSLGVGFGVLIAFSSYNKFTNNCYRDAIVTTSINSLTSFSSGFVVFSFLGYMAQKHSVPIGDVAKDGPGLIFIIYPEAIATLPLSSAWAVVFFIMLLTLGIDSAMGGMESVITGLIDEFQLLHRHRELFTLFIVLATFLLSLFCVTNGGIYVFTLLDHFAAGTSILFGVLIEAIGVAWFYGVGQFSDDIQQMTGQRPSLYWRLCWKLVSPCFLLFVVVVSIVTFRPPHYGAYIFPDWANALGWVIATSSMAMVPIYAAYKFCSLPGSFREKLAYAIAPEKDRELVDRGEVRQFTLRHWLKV
Chain of Sodium-dependent serotonin transporter (Rattus norvegicus, UniProt P31652) (P31652 whole entry): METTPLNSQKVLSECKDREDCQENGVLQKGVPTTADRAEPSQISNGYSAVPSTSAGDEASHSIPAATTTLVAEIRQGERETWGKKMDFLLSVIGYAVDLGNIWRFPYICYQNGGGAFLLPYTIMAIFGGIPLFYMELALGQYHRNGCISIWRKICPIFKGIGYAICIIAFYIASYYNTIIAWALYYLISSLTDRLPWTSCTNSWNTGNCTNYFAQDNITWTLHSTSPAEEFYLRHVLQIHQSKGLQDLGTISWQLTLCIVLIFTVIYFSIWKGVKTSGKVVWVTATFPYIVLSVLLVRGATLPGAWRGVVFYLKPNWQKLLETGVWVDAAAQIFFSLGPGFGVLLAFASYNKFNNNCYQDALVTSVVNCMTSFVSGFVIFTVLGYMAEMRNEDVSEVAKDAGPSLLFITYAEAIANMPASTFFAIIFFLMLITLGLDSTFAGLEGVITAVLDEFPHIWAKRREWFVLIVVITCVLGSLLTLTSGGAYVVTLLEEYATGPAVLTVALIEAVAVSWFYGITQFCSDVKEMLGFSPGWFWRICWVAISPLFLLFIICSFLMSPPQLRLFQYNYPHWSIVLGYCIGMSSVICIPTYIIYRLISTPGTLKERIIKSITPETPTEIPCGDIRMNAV
T1 sequence (P23975 whole entry): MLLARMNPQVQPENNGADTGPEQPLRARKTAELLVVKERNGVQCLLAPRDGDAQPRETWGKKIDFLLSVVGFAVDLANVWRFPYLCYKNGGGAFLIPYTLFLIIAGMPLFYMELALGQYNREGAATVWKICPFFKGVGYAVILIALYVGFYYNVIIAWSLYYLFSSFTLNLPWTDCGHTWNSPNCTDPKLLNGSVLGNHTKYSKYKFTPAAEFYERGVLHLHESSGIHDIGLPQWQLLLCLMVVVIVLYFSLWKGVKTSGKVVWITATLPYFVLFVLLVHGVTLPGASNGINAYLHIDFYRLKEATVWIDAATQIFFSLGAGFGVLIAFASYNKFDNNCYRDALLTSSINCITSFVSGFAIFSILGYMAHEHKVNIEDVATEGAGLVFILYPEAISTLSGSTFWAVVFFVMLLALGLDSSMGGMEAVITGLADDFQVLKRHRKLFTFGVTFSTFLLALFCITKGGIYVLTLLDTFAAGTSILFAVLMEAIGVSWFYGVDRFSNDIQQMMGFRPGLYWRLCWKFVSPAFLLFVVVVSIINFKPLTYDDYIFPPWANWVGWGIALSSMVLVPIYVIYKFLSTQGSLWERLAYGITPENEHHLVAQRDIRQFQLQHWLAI
Chain of Sodium-dependent dopamine transporter (Rattus norvegicus, UniProt P23977) (P23977 whole entry): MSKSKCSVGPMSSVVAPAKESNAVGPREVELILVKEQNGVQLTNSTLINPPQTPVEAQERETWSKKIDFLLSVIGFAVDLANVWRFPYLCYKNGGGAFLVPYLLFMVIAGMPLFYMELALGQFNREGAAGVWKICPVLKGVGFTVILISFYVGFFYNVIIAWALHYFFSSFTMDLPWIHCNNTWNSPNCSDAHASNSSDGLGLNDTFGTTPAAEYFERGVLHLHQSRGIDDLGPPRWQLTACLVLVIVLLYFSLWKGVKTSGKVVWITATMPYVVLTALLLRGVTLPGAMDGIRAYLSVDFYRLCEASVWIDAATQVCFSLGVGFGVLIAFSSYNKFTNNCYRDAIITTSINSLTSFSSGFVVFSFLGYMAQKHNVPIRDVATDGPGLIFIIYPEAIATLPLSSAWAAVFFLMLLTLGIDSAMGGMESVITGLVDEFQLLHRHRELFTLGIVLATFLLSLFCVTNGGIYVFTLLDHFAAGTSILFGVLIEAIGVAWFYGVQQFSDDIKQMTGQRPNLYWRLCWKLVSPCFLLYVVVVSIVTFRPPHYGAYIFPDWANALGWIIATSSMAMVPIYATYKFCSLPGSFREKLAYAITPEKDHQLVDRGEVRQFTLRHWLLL

For `COC(=O)[C@H]1C2CC[C@@H]3C[C@@H]1/C(=C/c1ccccc1)CN23`, the Ki is 1.04 µM in [1]; 0.91 µM in [2]; 0.481 µM in [3]; 2.4 µM in assay [4]; 2.33 µM in assay [5]; 1.14 µM in assay [6]. Moreover, the Ki was 0.068 µM in assay [7], 1.57 µM in [8] and 0.053 µM in [9].

Turning to `COC(=O)[C@H]1C2CC[C@@H]3C[C@@H]1/C(=C/c1ccc(F)cc1)CN23`, the values for the inhibition constant Ki in assay [3], in [6] and in assay [9] were 6.62 µM, 0.335 µM and 0.584 µM, respectively.

Turning to `CC(=O)OC[C@H]1C2CC[C@@H]3C[C@@H]1/C(=C/c1ccccc1)CN23`, the Ki is 1.03 µM in assay [3], 1.05 µM in [6] and 0.45 µM in assay [9].

For the compound `OC[C@H]1C2CC[C@@H]3C[C@@H]1/C(=C/c1ccccc1)CN23`, the Ki in [3] amounted to 9.69 µM; in assay [6], 5.3 µM; in assay [9], 2.83 µM.

Turning to `COC(=O)[C@H]1C2CC[C@@H]3C[C@@H]1/C(=C/c1ccoc1)CN23`, the Ki is 1.88 µM in assay [3], 0.498 µM in [6] and 0.164 µM in assay [9].

Consider `COC(=O)[C@H]1C2CC[C@@H]3C[C@@H]1/C(=C/c1ccc(-c4ccccc4)cc1)CN23`, for which the Ki in assay [3] turned out to be 0.477 µM; in assay [6], 0.614 µM; in [9], 0.012 µM.

Consider `COC(=O)[C@H]1C2CC[C@@H]3C[C@@H]1/C(=C/c1cccs1)CN23`, for which the values for the Ki in assay [3], in [6] and in assay [9] were 0.268 µM, 2.05 µM and 0.026 µM, respectively.

For `COC(=O)[C@H]1C2CC[C@@H]3C[C@@H]1/C(=C/c1ccc(OC)cc1)CN23`, the Ki in [1] came to 5.44 µM; in [2], 3.7 µM; in assay [3], 3.13 µM; in [4], 0.053 µM; in assay [5] it was 0.042 µM; in [6], 0.056 µM. Moreover, the inhibitory constant (Ki) in [7] turned out to be 0.208 µM; in assay [8], 3.6 µM; in assay [9], 0.187 µM.

As for `COC(=O)[C@H]1C2CC[C@@H]3C[C@@H]1/C(=C\c1ccccc1)CN23`, the Ki stood at 5.07 µM in [3], 7.48 µM in assay [6] and 1.53 µM in [9].

Consider `COC(=O)[C@H]1C2CC[C@@H]3C[C@@H]1/C(=C/c1ccco1)CN23`, for which the inhibitory constant (Ki) in assay [3] came out at 2.02 µM; in assay [6], 3.68 µM; in [9], 0.111 µM.

In the case of `OC[C@H]1C2CC[C@@H]3C[C@@H]1/C(=C/c1ccc(Cl)c(Cl)c1)CN23`, the Ki in assay [3] was 21.3 µM; in [6], 0.096 µM; in [9], 10.5 µM.

With `COC(=O)[C@H]1C2CC[C@@H]3C[C@@H]1/C(=C/c1cccc4ccccc14)CN23`, the Ki in assay [3] was 9.72 µM; in [6] it was 0.121 µM; in [9], 5.37 µM.

In the case of `COC(=O)[C@H]1C2CC[C@@H]3C[C@@H]1/C(=C/c1ccc(Cl)c(Cl)c1)CN23` (stereo in doubt; 5b), the inhibition constant Ki in assay [1] is 3.77 µM; in assay [2], above 10 µM; in assay [3], 1.92 µM; in [4], 0.03 µM; in assay [5] it was 0.00056 µM; in [6], 0.02 µM. Further, the results for the Ki in assay [7], in assay [8] and in [9] were 0.64 µM, 3.32 µM and 1 µM, respectively.

A word on the Ki: it is the dissociation constant of the complex between target and ligand, obtained from inhibition or displacement. A low value points to a stronger hold on the target.
